Data on one compound can be found in paper PMC2632993, “Conformational changes in α7 acetylcholine receptors underlying allosteric modulation by divalent cations” (BMC Pharmacology, 2009).

Common to all, as to test: MTSEA thiol modification rate (SCAM) from ACh-evoked currents in oocytes
Common to all, as to type: cell-based, chick
Common to all, as to conditions: 10 mM Ba^2+

Assay [1] concerns the target α7 AChR N^52C mutant (C^115A/L^247T background) (Gallus gallus, UniProt P22770, C138A/L270T/N75C). On the procedure:
(§1) ACh-evoked current amplitudes decreased following brief, repeated exposure to a limiting concentration of MTSEA (5 μM, 15 seconds). To ensure that the modification reactions were complete, all rate measurements included a final prolonged application of ~100-fold higher concentrations of MTSEA (Fig. 3A and 3B, right). Currents measured following this application represent the endpoint of the reaction between MTSEA and receptors. When the same protocol included Ba^2+ pretreatment and co-application with MTSEA (see Methods), the decreases in current amplitudes were slowed but the same endpoint was obtained (Fig. 3B). Normalized current amplitudes were plotted as a function of the cumulative time of exposure to MTSEA, and pseudo first-order rates were extracted from the single-exponential fits (Fig. 3C).
(§2) Figure 3 Barium slows the rate of MTSEA modification at M^37C. Example of experimental paradigm used to assess Ba^2+ effects on modification rates. […] Endpoints of MTSEA modification are determined by prolonged application of 500 μM MTSEA (right). (B) The same protocol, including Ba^2+ pretreatment and co-application with MTSEA. Current traces are truncated in both (A) and (B) between consecutive MTSEA applications; in all cases the currents were allowed to return to baseline prior to the next application of MTSEA ± ACh. (C) Peak current amplitudes from (A) and (B) are normalized and plotted versus total MTSEA exposure time. Data from this single experiment (no error bars) are fitted to a single-exponential decay (solid line) to extract an apparent pseudo first-order rate constant. The pseudo first-order rate constants calculated in this experiment were 0.011 s^-1 and 0.0019 s^-1 for control (A) and +Ba^2+ (B) measurements, respectively. Second-order rate constants are calculated from these values (Figures 4–6; Table 2).
(§3) Oocytes were superfused in normal extracellular solution containing a reduced Ca^2+ concentration (ESLC; 96 mM NaCl, 2 mM KCl, 1 mM MgCl2, 0.1 mM CaCl2, and 10 mM HEPES, pH 7.5). This solution minimized Ca^2+ influx and eliminated Ca^2+-activated chloride currents. Two-electrode voltage clamp was performed with a GeneClamp 500B controlled by pCLAMP8 software (Molecular Devices, Sunnyvale, CA). Electrodes were filled with 3 M KCl contacting Ag-AgCl wires and had resistances of 0.5 to 2.0 MΩ. Currents were recorded at a constant holding potential of -60 mV. Currents were low pass filtered at 50 Hz and sampled at 100 Hz. Agonist dose-response curves were obtained as described previously, and data were fit to the Hill equation using Origin software (Microcal Software, Northampton, MA).
(§4) MTSEA was prepared daily in distilled water and stored on ice. Stock solution was diluted to the appropriate working concentration in ESLC immediately before each application. […] The limiting dose, yielding 20–40% of the maximal MTSEA effect, was identified for each mutant. […] To measure the effect of Ba^2+ on modification rates we pre-applied 10 mM Ba^2+ for 30 seconds prior to co-application of 10 mM Ba^2+ plus MTSEA. This concentration of Ba^2+ is equivalent to an approximate […] for the modulatory effects in both parental and mutant AChRs. Kinetic data were analyzed as described previously; rate data were fit to a single exponential to extract a pseudo-first order rate constant; this was divided by the MTSEA concentration used to determine the second order rate constant for thiol modification.

The target in assay [2] is α7 AChR E^172C mutant (C^115A/L^247T background) (Gallus gallus, UniProt P22770, C138A/E195C/L270T). On the procedure:
as §1, §2, §3, §4

The target in assay [3] is α7 AChR E^44C mutant (C^115A/L^247T background) (Gallus gallus, UniProt P22770, C138A/E67C/L270T). On the procedure: as §1, §2, §3, §4
The target in assay [4] is α7 AChR N^170C mutant (C^115A/L^247T background) (Gallus gallus, UniProt P22770, C138A/L270T/N193C). On the procedure: as §1, §2, §3, §4
Assay [5] deals with α7 AChR M^37C mutant (C^115A/L^247T background) (Gallus gallus, UniProt P22770, C138A/L270T/M60C). Here is the method:
as §1, §2, §3, §4

The target in assay [6] is T1, α7 AChR M^40C mutant (C^115A/L^247T background) (Gallus gallus, UniProt P22770, C138A/L270T/M63C).
T1 construct: expressed in transfected cells; host or cells: Xenopus laevis oocytes injected with cRNA
Here is the method: as §1, §2, §3, §4

The target in assay [7] is α7 AChR M^40C/E^172Q mutant (C^115A/L^247T background) (Gallus gallus, UniProt P22770, C138A/E195Q/L270T/M63C). On the procedure: as §1, §2, §3, §4

For `[Ba+2].[Cl-].[Cl-]` [Ba^2+, BaCl2], the “effect of Ba^2+ on MTSEA modification rate” value in assay [1] is “no significant effect”; in assay [2], “significant Ba^2+-dependent decreases”; in assay [3] it was “significant Ba^2+-dependent decreases”; in assay [4], “the same as that measured in MTSEA alone”; in assay [5] it was “significant decreases”; in assay [6] it was “significant decreases”. For the same compound, the “effect of Ba^2+ on MTSEA modification rate” value in assay [7] is given as “significant slowing”.
